The subject of the assay is 379773-124-R-J2-PDC complex spheroids, viability % test/control. As to the kind of experiment: Anticancer human tumor 379773-124-R-J2-PDC patient-derived endometrial carcinoma cell line growth inhibition [CLK]. The following applies: for viability, T/C: stronger effect = lower value. Summed up:
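Multi-cell-type spheroids combined patient-derived tumor cells with HUVEC endothelial cells and human mesenchymal stem cells. Paired agents were dosed in half-log steps down from about clinical Cmax, or from 10 microM where Cmax was unknown.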

Where [1] appears, read: curve of first compound, second compound 0.0316 µM.
The mark [2] stands for this setting: curve of first compound, second compound 0.1 µM.
Setting [3] is: curve of first compound, second compound 0.316 µM.
[4] abbreviates: curve of first compound, second compound 1 µM.
The mark [5] stands for this setting: curve of first compound, second compound 3.16 µM.
The mark [6] stands for this setting: curve of first compound, second compound 10 µM.

Several values for one entry are separate records, joined by “and”; a condition that tells them apart may be missing. Equal values may be shown once.
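Further: compound exposure lasted seven days before the viability readout.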
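Wherever viability, T/C is given: 100% = DMSO vehicle control wells.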

With `O=C(c1cc(Cc2n[nH]c(=O)c3ccccc23)ccc1F)N1CCN(C(=O)C2CC2)CC1` + CNC(=O)c1ccc(Nc2nc(OC3CCCC3)c3c(-c4ccc5nc(C)oc5c4)c[nH]c3n2)c(OC)c1, the IC50 runs as follows: under setting [1], 5.6 µM; under setting [2], less than 0.0316 µM; under setting [3], less than 0.0316 µM; under setting [4], less than 0.0316 µM; under setting [5], less than 0.0316 µM; under setting [6], less than 0.0316 µM. Moreover, the viability, T/C is 76.2% (second compound 0.0316 µM, first compound 0.0316 µM); 75.1% (second compound 0.0316 µM, first compound 0.1 µM); 67.7% (second compound 0.0316 µM, first compound 0.316 µM); 75.4% (second compound 0.0316 µM, first compound 1 µM); 69.9% (second compound 0.0316 µM, first compound 3.16 µM); 29.6% (second compound 0.0316 µM, first compound 10 µM). Besides, the viability, T/C (second compound 0.1 µM, first compound 0.0316 µM) was 41.1%; the viability, T/C (second compound 0.1 µM, first compound 0.1 µM) was 41.7%; the viability, T/C (second compound 0.1 µM, first compound 0.316 µM) was 37.8%; the viability, T/C (second compound 0.1 µM, first compound 1 µM) is 31.9%; the viability, T/C (second compound 0.1 µM, first compound 3.16 µM) was 36.3%; the viability, T/C (second compound 0.1 µM, first compound 10 µM) was 15.3%. The viability, T/C is 51.7% (second compound 0.316 µM, first compound 0.0316 µM); 42.3% (second compound 0.316 µM, first compound 0.1 µM); 35.5% (second compound 0.316 µM, first compound 0.316 µM); 33.7% (second compound 0.316 µM, first compound 1 µM); 33% (second compound 0.316 µM, first compound 3.16 µM); 13.7% (second compound 0.316 µM, first compound 10 µM). Further, the viability, T/C (second compound 1 µM, first compound 0.0316 µM) was 39.9%; the viability, T/C (second compound 1 µM, first compound 0.1 µM) is 32.2%; the viability, T/C (second compound 1 µM, first compound 0.316 µM) is 29.8%; the viability, T/C (second compound 1 µM, first compound 1 µM) was 33.3%; the viability, T/C (second compound 1 µM, first compound 3.16 µM) was 23.2%; the viability, T/C (second compound 1 µM, first compound 10 µM) was 10.2%. In addition, the viability, T/C by setting is: (second compound 3.16 µM, first compound 0.0316 µM) 32.8%; (second compound 3.16 µM, first compound 0.1 µM) 34.1%; (second compound 3.16 µM, first compound 0.316 µM) 26.3%; (second compound 3.16 µM, first compound 1 µM) 33.5%; (second compound 3.16 µM, first compound 3.16 µM) 31%; (second compound 3.16 µM, first compound 10 µM) 8.47%. The viability, T/C is 29.5% (second compound 10 µM, first compound 0.0316 µM); 29.9% (second compound 10 µM, first compound 0.1 µM); 24.8% (second compound 10 µM, first compound 0.316 µM); 23.9% (second compound 10 µM, first compound 1 µM); 23.2% (second compound 10 µM, first compound 3.16 µM); 6.48% (second compound 10 µM, first compound 10 µM).

For `COc1ccc([C@@H](O)c2cc(-c3ncnc4cc(N5CCOCC5)ccc34)c(F)cc2Cl)nn1`, the viability, T/C by setting is: (compound 0.0316 µM) 95.4% and 83.8%; (compound 0.1 µM) 98.1% and 79.4%; (compound 0.316 µM) 81.3% and 79.2%; (compound 1 µM) 84.2% and 84.5%; (compound 3.16 µM) 68% and 79%; (compound 10 µM) 33.4% and 29.9%. In addition, the IC50 (curve of compound) was 5.67 µM and 6.25 µM.

As to `CC1(C)CCC(CN2CCN(c3ccc(C(=O)NS(=O)(=O)c4ccc(NCC5CCOCC5)c([N+](=O)[O-])c4)c(Oc4cnc5[nH]ccc5c4)c3)CC2)=C(c2ccc(Cl)cc2)C1`, the viability, T/C was 89.8% and 83.7% (compound 0.0316 µM); 92.6% and 89.4% (compound 0.1 µM); 96.8% and 94% (compound 0.316 µM); 96.9% and 111% (compound 1 µM); 77.8% and 79.7% (compound 3.16 µM); 3.91% and 4.86% (compound 10 µM). For the setting “curve of compound”, the IC50 is 4.88 µM and 4.99 µM.

With `CC(C)CC(NC(=O)C(Cc1ccccc1)NC(=O)c1cnccn1)B(O)O` (stereo not given) + CN1CCN(c2cc(C(=O)Nc3cc4cc(-c5cnn(C)c5)ccc4cn3)ccn2)CC1, the IC50 was 0.0018 µM under setting [1]; 0.00172 µM under setting [2]; less than 0.000949 µM under setting [3]; less than 0.000949 µM under setting [4]; less than 0.000949 µM under setting [5]; less than 0.000949 µM under setting [6]. Besides, the viability, T/C (second compound 0.0316 µM, first compound 0.000949 µM) is 83.2%; the viability, T/C (second compound 0.0316 µM, first compound 0.003 µM) was 23.3%; the viability, T/C (second compound 0.0316 µM, first compound 0.00949 µM) is 0.24%; the viability, T/C (second compound 0.0316 µM, first compound 0.03 µM) is 0.17%; the viability, T/C (second compound 0.0316 µM, first compound 0.0949 µM) is 0.13%; the viability, T/C (second compound 0.0316 µM, first compound 0.3 µM) was 0.12%. For the same compound, the viability, T/C (second compound 0.1 µM, first compound 0.000949 µM) was 84.3%; the viability, T/C (second compound 0.1 µM, first compound 0.003 µM) is 18.2%; the viability, T/C (second compound 0.1 µM, first compound 0.00949 µM) is 1.22%; the viability, T/C (second compound 0.1 µM, first compound 0.03 µM) is 0.15%; the viability, T/C (second compound 0.1 µM, first compound 0.0949 µM) was 0.19%; the viability, T/C (second compound 0.1 µM, first compound 0.3 µM) was 0.11%. The viability, T/C (second compound 0.316 µM, first compound 0.000949 µM) is 20.7%; the viability, T/C (second compound 0.316 µM, first compound 0.003 µM) was 1.68%; the viability, T/C (second compound 0.316 µM, first compound 0.00949 µM) is 0.49%; the viability, T/C (second compound 0.316 µM, first compound 0.03 µM) was 0.11%; the viability, T/C (second compound 0.316 µM, first compound 0.0949 µM) is 0.9%; the viability, T/C (second compound 0.316 µM, first compound 0.3 µM) is 0.12%. The viability, T/C was 0.18% (second compound 1 µM, first compound 0.000949 µM); 1.45% (second compound 1 µM, first compound 0.003 µM); 0.95% (second compound 1 µM, first compound 0.00949 µM); 0.06% (second compound 1 µM, first compound 0.03 µM); 0.3% (second compound 1 µM, first compound 0.0949 µM); 0.08% (second compound 1 µM, first compound 0.3 µM). Further, the viability, T/C was 0.24% (second compound 3.16 µM, first compound 0.000949 µM); 0.69% (second compound 3.16 µM, first compound 0.003 µM); 0.24% (second compound 3.16 µM, first compound 0.00949 µM); 0.05% (second compound 3.16 µM, first compound 0.03 µM); 0.07% (second compound 3.16 µM, first compound 0.0949 µM); 0.09% (second compound 3.16 µM, first compound 0.3 µM). The viability, T/C (second compound 10 µM, first compound 0.000949 µM) is 1.09%; the viability, T/C (second compound 10 µM, first compound 0.003 µM) is 0.98%; the viability, T/C (second compound 10 µM, first compound 0.00949 µM) is 0.26%; the viability, T/C (second compound 10 µM, first compound 0.03 µM) was 2.17%; the viability, T/C (second compound 10 µM, first compound 0.0949 µM) was 0.59%; the viability, T/C (second compound 10 µM, first compound 0.3 µM) was 0.24%.

Turning to `C=C(F)C(=O)N1CCN(c2nc(OCC3CCCN3C)nc3c2CCN(c2cccc4cccc(Cl)c24)C3)CC1CC#N` (stereo not given), the viability, T/C is, setting by setting: (compound 0.0316 µM) 76.2% and 106%; (compound 0.1 µM) 93.9% and 84.4%; (compound 0.316 µM) 95% and 80.9%; (compound 1 µM) 92% and 98.5%; (compound 3.16 µM) 33.3% and 66.9%; (compound 10 µM) 0.2% and 1.39%. Further, the IC50 (curve of compound) was 2.24 µM and 4.26 µM.
